System: SEM cells
Assay: cell viability relative to DMSO control; higher = less cytotoxic
Settings: 48 h
Method in brief: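 Viability, reported as a per-plate percentage of DMSO wells with cell-free wells as background, came from CellTiter-Glo One luminescence. Reading took place after 48 h at 37°C. Before that, NOMO1 or SEM (500 cells/well) or P12-Ichikawa (1000 cells/well) leukemia cells, adapted for at least four passages in each medium, were seeded in 1536-well plates (5 μl) and pin-dosed with library compounds in DMSO, 47 μM to 0.79 nM over 11 threefold points.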

[1] = HPLM + 10% dialyzed FBS, 0.000781 µM
[2] = HPLM + 10% dialyzed FBS, 0.00234 µM
[3] = HPLM + 10% dialyzed FBS, 0.00702 µM
[4] = HPLM + 10% dialyzed FBS, 0.0211 µM
[5] = HPLM + 10% dialyzed FBS, 0.0632 µM
[6] = HPLM + 10% dialyzed FBS, 0.19 µM
[7] = HPLM + 10% dialyzed FBS, 0.569 µM
[8] = HPLM + 10% dialyzed FBS, 1.71 µM
[9] = HPLM + 10% dialyzed FBS, 5.12 µM
[10] = HPLM + 10% dialyzed FBS, 15.4 µM
[11] = HPLM + 10% dialyzed FBS, 46.1 µM
[12] = RPMI 5 mM glucose + 10% FBS, 0.000781 µM
[13] = RPMI 5 mM glucose + 10% FBS, 0.00234 µM
[14] = RPMI 5 mM glucose + 10% FBS, 0.00702 µM
[15] = RPMI 5 mM glucose + 10% FBS, 0.0211 µM
[16] = RPMI 5 mM glucose + 10% FBS, 0.0632 µM
[17] = RPMI 5 mM glucose + 10% FBS, 0.19 µM
[18] = RPMI 5 mM glucose + 10% FBS, 0.569 µM
[19] = RPMI 5 mM glucose + 10% FBS, 1.71 µM
[20] = RPMI 5 mM glucose + 10% FBS, 5.12 µM
[21] = RPMI 5 mM glucose + 10% FBS, 15.4 µM
[22] = RPMI 5 mM glucose + 10% FBS, 46.1 µM
[23] = RPMI 5 mM glucose + 10% dialyzed FBS, 0.000781 µM
[24] = RPMI 5 mM glucose + 10% dialyzed FBS, 0.00234 µM
[25] = RPMI 5 mM glucose + 10% dialyzed FBS, 0.00702 µM
[26] = RPMI 5 mM glucose + 10% dialyzed FBS, 0.0211 µM
[27] = RPMI 5 mM glucose + 10% dialyzed FBS, 0.0632 µM
[28] = RPMI 5 mM glucose + 10% dialyzed FBS, 0.19 µM
[29] = RPMI 5 mM glucose + 10% dialyzed FBS, 0.569 µM
[30] = RPMI 5 mM glucose + 10% dialyzed FBS, 1.71 µM
[31] = RPMI 5 mM glucose + 10% dialyzed FBS, 5.12 µM
[32] = RPMI 5 mM glucose + 10% dialyzed FBS, 15.4 µM
[33] = RPMI 5 mM glucose + 10% dialyzed FBS, 46.1 µM

Row | SMILES | cell viability [1] [%] | cell viability [2] [%] | cell viability [3] [%] | cell viability [4] [%] | cell viability [5] [%] | cell viability [6] [%] | cell viability [7] [%] | cell viability [8] [%] | cell viability [9] [%] | cell viability [10] [%] | cell viability [11] [%] | cell viability [12] [%] | cell viability [13] [%] | cell viability [14] [%] | cell viability [15] [%] | cell viability [16] [%] | cell viability [17] [%] | cell viability [18] [%] | cell viability [19] [%] | cell viability [20] [%] | cell viability [21] [%] | cell viability [22] [%] | cell viability [23] [%] | cell viability [24] [%] | cell viability [25] [%] | cell viability [26] [%] | cell viability [27] [%] | cell viability [28] [%] | cell viability [29] [%] | cell viability [30] [%] | cell viability [31] [%] | cell viability [32] [%] | cell viability [33] [%]
1 | CCOC(=O)c1ncn2c1CN(C)C(=O)c1cc(F)ccc1-2 | 78.9 | 104 | 87.2 | 93.3 | 92.9 | 94.3 | 97.2 | 90.7 | 79.8 | 84.6 | 52.9 | 94.6 | 111 | 112 | 92.5 | 105 | 98.6 | 98.8 | 93.6 | 67.5 | 57.1 | 46.8 | 99 | 107 | 109 | 113 | 116 | 131 | 117 | 87.3 | 75.6 | 79.6 | 43.9
2 | Cc1cc(SCc2sc(-c3ccc(C(F)(F)F)c(F)c3)nc2C)ccc1OCC(=O)O | 104 | 107 | 105 | 40.9 | 103 | 109 | 108 | 111 | 105 | 98.9 | 96.1 | 102 | 74.9 | 96.7 | 43.2 | 100 | 107 | 99.4 | 101 | 104 | 93.8 | 103 | 93.4 | 93.3 | 106 | 48.4 | 93.6 | 104 | 100 | 100 | 91.6 | 101 | 96.5
3 | COc1cc2ncnc(Nc3ccc(F)c(Cl)c3)c2cc1OCCCN1CCOCC1 | 118 | 113 | 123 | 103 | 123 | 112 | 107 | 102 | 86.8 | 48.5 | 10.9 |  |  |  |  |  |  |  |  |  |  |  | 105 | 119 | 125 | 102 | 125 | 118 | 123 | 108 | 78.1 | 82 | 31.9
4 | COc1ccc(-c2nc3cc(C4=NNC(=O)CC4C)ccc3[nH]2)cc1 (configuration not stated) | 86.8 | 90.5 | 99.6 | 107 | 109 | 106 | 98.7 | 101 | 111 | 92.5 | 75.4 | 92.2 | 95.2 | 105 | 102 | 112 | 121 | 111 | 120 | 101 | 119 | 90.8 | 93.6 | 91.6 | 111 | 110 | 113 | 110 | 107 | 120 | 110 | 115 | 84.4
5 | CC(C)(O)CNc1nc(Nc2ccnc(C(F)(F)F)c2)nc(-c2cccc(C(F)(F)F)n2)n1 | 106 | 89 | 101 | 105 | 91.3 | 109 | 110 | 93.5 | 67.2 | 33.1 | 24.6 | 99.5 | 84.7 | 119 | 107 | 80.7 | 122 | 117 | 64.7 | 31.3 | 15.8 | 14.6 | 105 | 89.8 | 112 | 107 | 106 | 114 | 122 | 88.7 | 44.6 | 21.4 | 14.7
6 | COc1ccc(CCC(=O)Nc2nc3ccc(Cl)cc3s2)cc1OC | 104 | 114 | 121 | 111 | 120 | 104 | 116 | 112 | 132 | 116 | 111 | 112 | 92.8 | 108 | 102 | 123 | 127 | 124 | 126 | 115 | 104 | 95 | 120 | 102 | 105 | 113 | 120 | 107 | 101 | 121 | 102 | 117 | 105
7 | CC(C)[C@H](CO)Nc1nc(Nc2ccc(C(=O)O)c(Cl)c2)c2ncn(C(C)C)c2n1 | 113 | 104 | 103 | 112 | 126 | 115 | 97.6 | 73.6 | 99.2 | 92.2 | 54.2 | 89.7 | 128 | 114 | 95.2 | 106 | 102 | 86.6 | 83.2 | 75.5 | 91.7 | 45 | 102 | 120 | 97.3 | 107 | 116 | 107 | 114 | 79.1 | 109 | 95.5 | 57.8
8 | Nc1ccc([S+](=O)([O-])Nc2ccccn2)cc1 | 77.7 | 91.7 | 91.3 | 93.7 | 82.7 | 91 | 93.6 | 98.8 | 88.5 | 97 | 96.9 | 100 | 104 | 115 | 118 | 112 | 108 | 122 | 119 | 124 | 109 | 111 | 98.6 | 109 | 100 | 101 | 113 | 101 | 99 | 108 | 121 | 103 | 115
9 | COc1cc(N2CCC(N3CCN(C)CC3)CC2)ccc1Nc1ncnc(Nc2ccccc2[S+](=O)([O-])C(C)C)n1 | 69.6 | 81.5 | 85.8 | 99.3 | 67.4 | 106 | 104 | 88.4 | 67.6 | 25.2 | 11.9 | 71.3 | 72.6 | 90.7 | 93.8 | 59.6 | 123 | 109 | 81 | 59.4 | 22.5 | 7.39 | 87.4 | 90.2 | 82.2 | 85.7 | 69.8 | 132 | 127 | 109 | 72.7 | 26.4 | 12.9
10 | CCCCOc1ccc(C(=O)Nc2ccc(F)cc2F)cc1 | 68.1 | 88.6 | 67.1 | 95.1 | 86.9 | 88.3 | 84.6 | 30.1 | 88.1 | 92.5 | 83.4 | 68.6 | 88.8 | 65.9 | 86.5 | 83.4 | 92.7 | 81.5 | 48.3 | 88.4 | 101 | 73.5 | 78 | 89.7 | 70.6 | 90.1 | 84.7 | 85.6 | 86.2 | 48.1 | 88 | 90.2 | 76.7
11 | O=C(NC1CC1)c1cccc(-c2ccc3c(NC(=O)C4CC4)n[nH]c3c2)c1 | 98.9 | 98.1 | 107 | 96.2 | 97.6 | 95.1 | 97.2 | 98.5 | 90 | 62.8 | 18.8 | 97.1 | 106 | 109 | 107 | 103 | 98.4 | 103 | 113 | 89.4 | 51.3 | 11.1 | 103 | 108 | 104 | 104 | 116 | 115 | 102 | 104 | 86.1 | 56.9 | 18.2
12 | CN(C)c1nc(N(C)C)nc(N(C)C)n1 | 92.3 | 97.3 | 110 | 95.1 | 103 | 104 | 106 | 92.5 | 97.6 | 92.2 | 84.9 | 107 | 111 | 102 | 105 | 107 | 101 | 102 | 100 | 90.1 | 104 | 93.4 | 102 | 115 | 102 | 104 | 108 | 110 | 109 | 94.3 | 100 | 98.6 | 93.1
13 | COc1ccc2cccc(CCNC(C)=O)c2c1 | 105 | 104 | 107 | 111 | 109 | 97.6 | 112 | 114 | 109 | 49.2 | 105 | 110 | 83.4 | 107 | 100 | 105 | 90 | 109 | 106 | 110 | 40.7 | 95 | 107 | 106 | 101 | 111 | 120 | 94.8 | 94.7 | 104 | 124 | 37.4 | 101
14 | OC1=C(C=CC=C1)C2=CC=C(C=C2)C3=CSC4=C3C(=C(/C#N)C(=O)N4)/O | 114 | 123 | 131 | 129 | 120 | 132 | 124 | 113 | 96.6 | 113 | 103 | 111 | 109 | 118 | 112 | 105 | 90.5 | 98.6 | 112 | 87.4 | 96.7 | 90.9 | 113 | 117 | 124 | 133 | 121 | 126 | 115 | 117 | 104 | 110 | 100
15 | CC1=C(/C=C/C(C)=C/C=C/C(C)=C/C(=O)Nc2ccc(O)cc2)C(C)(C)CCC1 | 84.5 | 77.4 | 81.4 | 104 | 86.9 | 83.9 | 85.1 | 42.5 | 23.1 | 5.89 | 3.35 | 85 | 85.5 | 92.2 | 96.9 | 81.4 | 88.6 | 83 | 65 | 30.7 | 9.06 | 3.24 | 76.8 | 71.5 | 80.1 | 85.3 | 76.6 | 80.8 | 82.2 | 37.5 | 20 | 4.93 | 2.92
16 | COC1=CC=C(C=C1)C/2=C/OC3=CC(=CC=C3C2=O)O | 116 | 113 | 113 | 114 | 123 | 109 | 114 | 122 | 130 | 115 | 136 | 117 | 124 | 136 | 109 | 133 | 117 | 98.9 | 106 | 143 | 122 | 145 | 124 | 139 | 112 | 110 | 115 | 120 | 122 | 121 | 133 | 131 | 142

From the supplement of paper PMC11451515
